According to patent US12492210B2, “Tricyclic compounds and their use” (HUTCHISON MEDIPHARMA LIMITED, priority 2019, dated 2025):

Experiments:
MAPK1(ERK2) enzyme = target: T1, MAPK1(ERK2) enzyme (Homo sapiens, UniProt P28482); test: Z-Lyte Kinase Assay of ERK2; assay type: biochemical; conditions: read-out: Example 18 IC50
T1 construct: purchased Invitrogen PV3313
Procedure: Example 18: Z-Lyte Kinase Assay of ERK2
1. Materials and Reagents:
2. Reaction Steps: Plate Map
3. Solution Preparation • 1) 1.33× Kinase Buffer: Dilute 5× Kinase Buffer to 1.33× with ddH2O • 2) 4× Test Compounds: Serially dilute the test compounds to 4 folds of the concentrations desired, keeping the DMSO concentration at 8%. The final concentrations are 1, 0.33, 0.11, 0.037, 0.012, 0.004, 0.0014, 0.00046 μM, and the final concentration of DMSO is 2%. • 3) Kinase/Peptide Mixture (P/K solution): Prepare Kinase/Peptide Mixture by diluting the kinase to 0.6 μg/ml and the Z-LYTE™ Ser/Thr3 peptide to 4 μM in 1.33× Kinase Buffer. Mix gently by pipetting. • 4) Phospho-peptide Solution (PP solution): Add 0.4 μl of Z-LYTE™ Ser/Thr3 Phospho-peptide to 99.6 μl of 1.33× Kinase Buffer. • 5) ATP Solution: Prepare ATP Solution by diluting the 10 mM of ATP in 1.33× Kinase Buffer to 100 μM. • 6) Development Solution: Dilute Development Reagent A with Development Buffer as 1:1024. 4. Reaction • 1) Kinase reaction (10 μl of Volume) • a. In a 384-well plate, add 2.5 μl of 4× test Cpds to each well except C1, C2, C3 wells Add 2.5 μl of 8% DMSO to C1, C2, C3 wells • b. Put the plate on ice • c. Add 5 μl of P/K mixture to each test Cpd wells and C1, C2 wells • d. Add 5 μl of PP Solution to C3 well • e. Add 2.5 μl of 1.33× kinase buffer to C1 and C3 wells • f. Add 2.5 μl of 4×ATP Solution to each test Cpd wells and C2 well, respectively. Shake the plate for 30 Sec and centrifuge (1500 rpm, 1 min) • g. Seal the plate to protect from the light and incubate the plate for 1 hour at RT (25-30° C.) • 2) Development reaction • a. Add 5 μl of the Development solution to all wells • b. Shake the plate for 30 sec and centrifuge (1500 rpm, 1 min) • c. Seal the plate to protect from the light and incubate the plate for 1 hour at RT (25-30° C.) • 3) Stop and read • a. Add 5 μl of the Stop reagent to all wells • b. Shake the plate for 30 sec and centrifuge (1500 rpm, 1 min) • c. Measure the value of coumarin (Ex400 nm, Em445 nm) and fluorescein (Ex400 nm, Em520 nm), respectively. 5. Data Analysis Emission Ratio(ER)=Coumarin Emission (445 nm)/Fluorescein Emission (520 nm) % Phosphorylation=1−[ER×C3520nm−C3445nm]/[(C1445nm−C3445nm)+ER×(C3520nm−C1520nm)] Inhibition rate (IR)=1−% Photest Cpd% PhoC2 6. IC50 Value: determine IC50 with add-in software for Microsoft Excel, XLfit™ (version 2.0) from ID Business Solutions (Guildford, UK)

[1] = system: p-RSK (Thr359) in colo205 cells; test: p-RSK (Thr359) Acumen Assay in Colo205; assay type: cell-based; conditions: Homo sapiens, COLO 205, 1 hour compound incubation, read-out: Example 19 IC50
Procedure: Example 19: p-RSK (Thr359) Acumen Assay in Colo205
• Phospho-p90RSK (Thr359) (D1E9) Rabbit mAb: cell signal, #8753 • Alexa Fluor® 488 donkey anti-rabbit IgG: invitrogen, #A-21206 • Propidium Iodide: Sigma, #p4170 • 4% Paraformaldehyde: SCRC, #DF021 • 10% Triton X-100: PIERCE, #28314 • 96-well plate (black with clear bottom): BD, #354640 • Acumen® eX3 (A Multilaser Microplate Cytometer For Enhanced High Content Screening): TTP LabTech 3. Acumen Assay Protocol • Seed 4000 cells in 100 μl 10% FBS/well into 96-well plate, incubate at 37° C., 5% CO2, overnight. • Dilute the compound to 3, 1, 0.33, 0.11, 0.037, 0.012, 0.004, 0.001 μM, keeping the DMSO concentration at 5%. Add 10 μl of diluted compound per well and incubate at 37° C., 5% CO2 for 1 hour. • Add 100 μl of 4% pre-warmed Paraformaldehyde (2% final), and incubate for 45 min at room temperature. • Remove paraformaldehyde solutions. Add 100 μl of ice-cold 0.1% Triton to fixed cells at room temperature for 30 min. • Wash twice with 150 μl PBS and incubate with 100 μl blocking buffer (1% BSA, in PBS) for 2˜3 hours at room temperature, seal the plate. • Wash once with PBS and incubate with 35 μl p-RSK (Thr359) (1:1000 dilution) overnight at 4° C. Seal the plate. • Wash twice with PBS and incubate for 1.5 hours at room temperature with 35 μl of Alexa Fluor® 488 donkey anti-rabbit IgG at a 1:1,000 dilution in antibody dilution buffer (0.1% BSA, in PBS). Cover plate in foil to keep out of light. • Wash twice with 150 μl PBS. Add 35 μl of 1.5 μM Propidium Iodide stock to each well to determine cell number, seal the plate. • Incubate at room temperature for 30 min. Load the plate into the Acumen Explorer and scan with the appropriate instrument settings. 4. Data Analysis
[formula] Note: • Percentagecompound well represents the positive percentage of cells treated by compound. • Percentagemin well represents the positive percentage of cells treated with 3 uM GDC0994. • Percentagemax well represents the positive percentage of cells without compounds treatment. 5. IC50 Value: determine IC50 with add-in software for Microsoft Excel, XLfit™ (version 2.0) from ID Business Solutions (Guildford, UK)

T1 sequence (P28482 whole entry): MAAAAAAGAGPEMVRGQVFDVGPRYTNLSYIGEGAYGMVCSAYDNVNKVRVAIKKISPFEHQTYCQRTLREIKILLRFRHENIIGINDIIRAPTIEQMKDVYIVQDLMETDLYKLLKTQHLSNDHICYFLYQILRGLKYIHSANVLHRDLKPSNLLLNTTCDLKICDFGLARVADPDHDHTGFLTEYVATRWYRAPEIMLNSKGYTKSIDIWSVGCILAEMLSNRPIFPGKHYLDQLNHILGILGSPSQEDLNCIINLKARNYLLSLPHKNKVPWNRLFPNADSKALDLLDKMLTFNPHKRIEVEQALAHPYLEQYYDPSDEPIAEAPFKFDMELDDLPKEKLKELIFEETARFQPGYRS

Row | SMILES | IC50 (MAPK1(ERK2) enzyme) | IC50 [1]
1 | Cn1nccc1Nc1cc(-c2cc3n(c2)CCCn2c-3nnc2C2(C(F)F)CCCC2)c(Cl)cn1 [Compound 81] | ≤ 5 nM | ≤ 100 nM
2 | Cn1nccc1Nc1cc(-c2cc3n(c2)CCn2c-3nnc2C(F)(F)C(F)F)c(Cl)cn1 [Compound 58] | ≤ 5 nM | ≤ 100 nM
3 | Cc1cnc(Nc2ccnn2C)cc1-c1cc2n(c1)CC1(CC1)Cn1c-2nnc1C(F)(F)C(F)F [Compound 66] | ≤ 5 nM | ≤ 100 nM
4 | Cc1cnc(Nc2ccnn2C)nc1-c1cc2n(c1)C[C@H](C)n1c-2nnc1C(F)(F)n1cc(Cl)cn1 [Compound 102] | ≤ 5 nM | ≤ 100 nM
5 | Cn1nccc1Nc1cc(-c2cc3n(c2)C[C@H](F)Cn2c-3nnc2C2(C(F)(F)F)CCC2)c(F)cn1 [Compound 85] | ≤ 5 nM | ≤ 100 nM
6 | Cn1nccc1Nc1cc(-c2cc3n(c2)CCn2c(Cc4ccccc4F)nnc2-3)c(Cl)cn1 [Compound 9] | ≤ 5 nM | ≤ 100 nM
7 | Cn1nccc1Nc1cc(-c2cc3n(c2)CCn2c(COc4ccccc4F)nnc2-3)c(Cl)cn1 [Compound 23] | 5 to 10 nM | ≤ 100 nM
8 | Cn1nccc1Nc1ncc(F)c(-c2cc3n(c2)C[C@H](CF)n2c-3nnc2C(F)(F)c2ccccc2)n1 [Compound 98] | ≤ 5 nM | ≤ 100 nM
9 | C[C@H]1Cn2cc(-c3ccnc(Nc4ccnn4C)n3)cc2-c2nnc(C(F)(F)c3ccccc3F)n21 [Compound 71] | ≤ 5 nM | ≤ 100 nM
10 | Cn1nccc1Nc1nccc(-c2cc3n(c2)CCCn2c(Cc4ccccc4Cl)nnc2-3)n1 [Compound 8] | ≤ 5 nM | > 100 nM
11 | Cc1nonc1C(F)(F)c1nnc2n1[C@@H](C)Cn1cc(-c3cc(Nc4ccnn4C)ncc3Cl)cc1-2 [Compound 103] | 5 to 10 nM | ≤ 100 nM
12 | Cc1cnc(Nc2ccnn2C)nc1-c1cc2n(c1)CCCn1c-2nnc1C1(C(F)(F)F)CCCC1 [Compound 28] | ≤ 5 nM | ≤ 100 nM
13 | Cc1cnc(Nc2ccnn2C)cc1-c1cc2n(c1)CC(C)(F)Cn1c-2nnc1C(F)(F)C(F)F (centres unmarked) [Compound 72] | 5 to 10 nM | ≤ 100 nM
14 | Cc1cnc(Nc2ccnn2C)cc1-c1cc2n(c1)[C@@H]1CC[C@@H](C1)n1c-2nnc1C(F)(F)C(F)F [Compound 65] | ≤ 5 nM | ≤ 100 nM

Now from value to compound:

Row | IC50 (MAPK1(ERK2) enzyme) | IC50 [1] | SMILES
15 | 5 to 10 nM | ≤ 100 nM | Cn1nccc1Nc1cc(-c2cc3n(c2)CC2(CC2)n2c-3nnc2C2(C(F)(F)F)CCC2)c(Cl)cn1 [Compound 259]
16 | 5 to 10 nM | ≤ 100 nM | Cc1cnccc1Nc1ncc(C)c(-c2cc3n(c2)CCCn2c-3nnc2C2(C(F)(F)F)CCC2)n1 [Compound 286]
17 | 5 to 10 nM | ≤ 100 nM | Cn1nccc1Nc1ncc(F)c(-c2cc3n(c2)C[C@H](CF)n2c-3nnc2C(F)(F)c2ccccc2Cl)n1 [Compound 193]
18 | ≤ 5 nM | ≤ 100 nM | Cc1cnc(NC2CCOCC2)nc1-c1cc2n(c1)CCCn1c-2nnc1C1(C(F)(F)F)CCC1 [Compound 277]
19 | ≤ 5 nM | ≤ 100 nM | Cc1cnc(Nc2ccnn2C)nc1-c1cc2n(c1)CCC(C)(C)n1c-2nnc1C1(C(F)(F)F)CC1 [Compound 251]
20 | ≤ 5 nM | ≤ 100 nM | Cn1nccc1Nc1cc(-c2cc3n(c2)C[C@H](CF)n2c-3nnc2C(F)(F)n2cc(Cl)cn2)c(F)cn1 [Compound 164]
21 | ≤ 5 nM | ≤ 100 nM | Cc1cnc(Nc2ccnn2C)cc1-c1cc2n(c1)CC1(COC1)Cn1c-2nnc1C1(C(F)(F)F)CCC1 [Compound 306]
22 | ≤ 5 nM | ≤ 100 nM | Cc1cnc(N[C@@H](C)CO)nc1-c1cc2n(c1)CCCn1c-2nnc1C1(C(F)(F)F)CCC1 [Compound 275, (S)-2-((5-methyl-4-(3-(1-(trifluoromethyl)cyclobutyl)-6,7-dihydro-5H-pyrrolo[1,2-a][1,2,4]triazolo[3,4-c][1,4]diazepin-10-yl)pyrimidin-2-yl)amino)propan-1-ol]
23 | > 10 nM | ≤ 100 nM | Cn1nccc1Nc1cc(-c2cc3n(c2)C(C(F)(F)F)Cn2c-3nnc2C(F)(F)C(F)F)c(Cl)cn1 (centres unmarked) [Compound 270]
24 | 5 to 10 nM | ≤ 100 nM | Cc1cnc(Nc2ccnn2C)nc1-c1cc2n(c1)C[C@H](CF)n1c-2nnc1C(F)(F)c1c(F)cccc1F [Compound 189]
25 | ≤ 5 nM | > 100 nM | CCc1cnc(Nc2ccnn2C)cc1-c1cc2n(c1)C[C@H](OC)Cn1c-2nnc1C1(C(F)(F)F)CCC1 [Compound 147]
26 | ≤ 5 nM | ≤ 100 nM | Cn1nccc1Nc1cc(-c2cc3n(c2)C[C@H](O)Cn2c-3nnc2C2(C(F)(F)F)CCC2)c(Cl)cn1 [Compound 215, (S)-10-(5-chloro-2-((1-methyl-1H-pyrazol-5-yl)amino)pyridin-4-yl)-3-(1-(trifluoromethyl)cyclobutyl)-6,7-dihydro-5H-pyrrolo[1,2-a][1,2,4]triazolo[3,4-c][1,4]diazepin-6-ol]
27 | ≤ 5 nM | ≤ 100 nM | Cn1nccc1Nc1ncc(Cl)c(-c2cc3n(c2)CCCn2c(COC4(C(F)(F)F)CCC4)nnc2-3)n1 [Compound 213]
28 | ≤ 5 nM | ≤ 100 nM | Cn1nccc1Nc1cc(-c2cc3n(c2)C[C@H](CF)n2c-3nnc2C(F)(F)c2ncccc2Cl)c(Cl)cn1 [Compound 207]
29 | ≤ 5 nM | > 100 nM | Cn1nccc1Nc1ncc(F)c(-c2cc3n(c2)CCCn2c-3nnc2C2(C(F)(F)F)CCC2)n1 [Compound 285]
30 | ≤ 5 nM | ≤ 100 nM | Cc1cnc(Nc2ccnn2C)cc1-c1cc2n(c1)CC(F)(F)Cn1c-2nnc1C1(C(F)F)CC(F)(F)C1 [Compound 169]
31 | 5 to 10 nM | ≤ 100 nM | Cn1nccc1Nc1ncc(F)c(-c2cc3n(c2)C[C@H](CF)n2c-3nnc2C(F)(F)c2ccccc2F)n1 [Compound 148]
32 | > 10 nM | ≤ 100 nM | Cc1ncccc1C(F)(F)c1nnc2n1[C@@H](CF)Cn1cc(-c3cc(Nc4ccnn4C)ncc3Cl)cc1-2 [Compound 177]
33 | ≤ 5 nM | > 100 nM | COC[C@H]1Cn2cc(-c3cc(Nc4ccnn4C)ncc3Cl)cc2-c2nnc(C(F)(F)C(F)F)n21 [Compound 301]
34 | ≤ 5 nM | ≤ 100 nM | Cc1cnc(Nc2ccnn2C)cc1-c1cc2n(c1)CCCn1c-2nnc1C1(C(F)(F)F)CC1 [Compound 233]
